Laboratory results as given in patent EP4324461A1, “(E)-N-CINAMOYLAMINOALKANOLES WITH MELANOGENESIS INHIBITORY ACTIVITY” (UNIWERSYTET JAGIELLONSKI, priority 2022, dated 2024).
“And” between values parts separate entries of the source, which are not always exact repeats. Equal entries are not always repeated. Where two headings read alike, the source gives them in different places.

How the values were obtained:
[1] = test system: B16-F10 murine melanoma cell line; test: Cytotoxicity in B16-F10 cells (MTT); format: cell-based; details: 48 h
Procedure: In order to determine safe doses of compounds for testing the inhibition of melanogenesis in a murine melanoma cell line, cytotoxicity tests were performed. Cytotoxicity was determined by the colorimetric method using MTT ([3-(4,5-dimethyl-2-thiazolyl)-2,5-diphenyl-2H-tetrazolium bromide, Sigma M5655). For this purpose, cells were transferred to 96-well plates in an amount of 5000/well. After 24 h of culture in an incubator in F 10-Ham medium with 1% FBS, the tested compounds at various concentrations were added to the wells together with fresh medium. DMSO was added to the medium in a negative control. The MTT test was performed after further culture for 48 h. Then the medium was removed and the formed formazan crystals were dissolved in DMSO. The absorbance was measured at 570 nm in a plate reader and the result was compared to the control (DMSO), which was 100%. The percentage of viability was calculated using the formula: [AT/AC^∗100], where AT is the absorbance of the test sample, AC - absorbance of the control sample. Table 3. Results of inhibiting the activity of monophenolase […] tyrosinase and cytotoxicity testing in B16F10 cells for the described compounds.

tyrosinase from mushroom = test: Inhibition of commercial mushroom tyrosinase (L-DOPA or L-tyrosine substrate); format: biochemical
Procedure: The following substrates were used for the enzymatic reaction: L-tyrosine and L-3,4-dihyroxyphenylalanine (L-DOPA). Both substrates were used in independent experiments. According to the literature, the use of L-DOPA enables the assessment of tyrosinase diphenolase activity, and L-tyrosine - the tyrosinase monophenolase activity. The determinations were performed in 96-well plates, in each well there was placed: 170 µL or 127.5 µL of 50 mM phosphate buffer (pH = 6.8) with tyrosinase (1U/well or 3U/well) and 10 µL of a solution of the tested compound in DMSO (the final concentration in the well was 500 µM, 250 µM or 125 µM). The negative control used 10 µL of pure solvent (DMSO). To initiate the reaction, an appropriate substrate was added: L-tyrosine (62.5 µL of solution in phosphate buffer) or L-DOPA (20 µL of solution in phosphate buffer). After a 25-minute incubation, the absorbance was measured at 475 nm using a microplate reader. The percentage of inhibition of tyrosinase activity was calculated using the formula: [(AC -AT)/AC] × 100, where AC - is the absorbance of the negative control, AT - is the absorbance of the sample containing the tested compound.

[2] = Lipophilicity coefficient RM0 by reversed phase thin layer chromatography; format: physicochemical; details: RP-18 TLC, methanol / 100 mM phosphate buffer pH = 7.4
Procedure: Confirmation of the identity and purity of the obtained compounds consisted in the registration and interpretation of ^1H NMR and ^13C NMR spectra (the spectra were recorded using an ECZR 500 MHz (JEOL) series FT-NMR spectrophotometer), as well as the registration and interpretation of LC-MS spectra (the spectra were recorded using Acquita UPLC system (Waters) coupled with a Waters TQD mass spectrometer). The melting point was measured using the open capillary method in the IA9300 device (Electrothermal). The lipophilicity coefficient RM0 was determined by reversed phase thin layer chromatography. In the study, aluminum plates 20x20 cm covered with modified silica gel RP-18 F254 (Merck) were used as the solid phase. The mobile phase consisted of solutions of methanol and 100 mM phosphate buffer (pH = 7.4), characterized by a variable methanol content ranging from 95 to 65% (v/v). The tested compounds were dissolved in methanol to obtain solutions with a concentration of 1 mg/mL. Then, 5 µL of the solutions prepared in this way were transferred to the starting line on aluminum plates, which were then placed in chromatographic chambers previously saturated with mobile phase vapors for at least 1 hour. All activities, including the development of chromatograms, were carried out at room temperature. After developing the chromatograms to approximately 1-2 cm from the end of the plate, the plates were dried and then the distance traveled by the tested compounds was visualized under UV light (λ = 254 nm). The experiment was performed in duplicate for the specified conditions. For all samples, Rf was calculated according to the formula Rf = a/b, where a - the distance traveled by the tested compound, b - the distance traveled by the mobile phase. Then, the RM parameter was calculated for all samples according to the formula RM = log(1/Rf - 1), obtaining a linear relationship between the RM values and the methanol concentration in the mobile phase. The logP coefficient was also calculated using the following computer programs: ACD/ChemSketch 2020.1.2 and ChemDraw 20.0.0.41. Table 2. The physicochemical data of the compounds are presented below

S. typhimurium TA100 = test: Ames microplate test, TA100; format: cell-based, Salmonella typhimurium; details: positive control (PC), 125 µg/mL, +S9;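 further: reference level is the mean solvent-control yellow wells plus SD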
Procedure: (§1) Bacteria were grown overnight in growth medium.
(§2) Table 9. Ames microplate test results.

S. typhimurium TA98 = test: Ames microplate test, TA98; format: cell-based, Salmonella typhimurium; details: positive control (PC), 0.5 µg/mL, +S9;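 further: reference level is the mean solvent-control yellow wells plus SD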
Procedure: as §1, §2

[3] = L-DOPA, read-out: Tyrosinase inhibition with L-DOPA, IC50
[4] = L-tyrosine, read-out: Tyrosinase inhibition with L-tyrosine, IC50

SMILES	Cytotoxicity study in B16F10 cells % viability ([1]; 150 µM) [%]	Cytotoxicity study in B16F10 cells % viability ([1]; 200 µM) [%]	Cytotoxicity study in B16F10 cells % viability ([1]; 250 µM) [%]	Tyrosinase inhibition with L-DOPA [%] (tyrosinase from mushroom; L-DOPA)	Tyrosinase inhibition with L-tyrosine [%] (tyrosinase from mushroom; L-tyrosine)	RM0 [2]	Tyrosinase inhibition with L-DOPA [%] (tyrosinase from mushroom; L-DOPA, concentration not given)	IC50 (tyrosinase from mushroom; [3]) [µM]	IC50 (tyrosinase from mushroom; [4]) [µM]	Increase in the number of yellow wells compared to the reference level (S. typhimurium TA100)	Increase in the number of yellow wells compared to the reference level (S. typhimurium TA98)	Cytotoxicity study in B16F10 cells % viability ([1]; 12.5 µM) [%]	Cytotoxicity study in B16F10 cells % viability ([1]; 25 µM) [%]	Cytotoxicity study in B16F10 cells % viability ([1]; 50 µM) [%]
CCC(O)CNC(=O)/C=C/c1ccc(Cl)cc1Cl (stereo not shown) [H-320/21, (2E)-3-(2,4-dichlorophenyl)-N-(2-hydroxybutyl)prop-2-enamide]	101.7	90.8	33.9	5.8±3.04% (500 µM)	24.43±8.05% (500 µM)	3.08								
O=C(/C=C/c1ccc(Cl)cc1)N1CCC(O)CC1 [Compound A-99, (2E)-3-(4-chlorophenyl)-1-(4-hydroxypiperidin-1-yl)prop-2-en-1-one]	109.8	102.6	96.6		75.14±1.60% (500 µM)	2.27	54.87±1.47	450	177					
Cc1ccc(/C=C/C(=O)NCCCO)cc1 [H-410/21, (2E)-N-(3-hydroxypropyl)-3-(4-methylphenyl)prop-2-enamide]	88.8	90.7	79.8	16.99±5.66% (500 µM)	0.51±5.40% (500 µM)	2.04								
O=C(/C=C/c1ccccc1)NCCCO [KM-634, (2E)-N-(3-hydroxypropyl)-3-phenylprop-2-enamide]	76.1	70.5	63.3	34.23±2.32% (500 µM)	27.41±2.24% (500 µM)	1.60								
Nc1ccc2cc3ccccc3cc2c1 [Compound 2-AA, 2-aminoanthracene, reference compound]										4.00	24.00 and 15.03			
CC(C)C(CO)NC(=O)/C=C/c1ccc(Cl)cc1 (stereo not shown) [Compound A-106, (2E)-3-(4-chlorophenyl)-N-(1-hydroxy-3-methylbutan-2-yl)prop-2-enamide]	85.9	88.1	72.6	41.17±0.81% (500 µM)	57.62±2.11% (500 µM)	2.76		906	405					
O=C(/C=C/c1ccc(Cl)cc1Cl)N1CCC(O)CC1 [H-310/20, (2E)-3-(2,4-dichlorophenyl)-1-(4-hydroxypiperidin-1-yl)prop-2-en-1-one]	89.5	100.4	93.0	7.23±0.81% (500 µM)	19.24±3.44% (500 µM)	2.80								
O=C(/C=C/c1ccccc1)NCCO [H-429/21, (2E)-N-(2-hydroxyethyl)-3-phenylprop-2-enamide]	86.4	79.8	80.9	30.54±1.20% (500 µM)	21.00±8.83% (500 µM)	1.27								
O=C(/C=C/c1ccc(Cl)cc1Cl)NCCCO [H-296/20, (2E)-3-(2,4-dichlorophenyl)-N-(3-hydroxypropyl)prop-2-enamide]	67.0	57.0	38.3	18.63±1.67% (500 µM)	17.87±7.36% (500 µM)	2.11								
O=C(/C=C/c1ccc(Cl)cc1)NCCCCO [H-331/21, (2E)-3-(4-chlorophenyl)-N-(4-hydroxybutyl)prop-2-enamide]	32.7	51.9	52.7	64.31±0.21% (500 µM)	82.50±0.87% (500 µM)	2.14		153	103			49.0	47.8	54.2
CCC(CO)NC(=O)/C=C/c1ccc(Cl)cc1 (stereo not shown) [Compound A-01, (2E)-3-(4-chlorophenyl)-N-(1-hydroxybutan-2-yl)prop-2-enamide]	73.6	93.2	85.4	43.99±2.60% (500 µM)	61.80±0.40% (500 µM)	2.43		734	284					
O=C(/C=C/c1ccc(Cl)cc1Cl)NCCCCO [H-298/20, (2E)-3-(2,4-dichlorophenyl)-N-(4-hydroxybutyl)prop-2-enamide]	46.5	40.6	37.4	11.16±2.78 (500 µM) %	20±2.96% (500 µM)	2.78								
Cc1ccc(/C=C/C(=O)NC(C)CO)cc1 (stereo not shown) [Compound A-69, (2E)-N-(1-hydroxypropan-2-yl)-3-(4-methylphenyl)prop-2-enamide]	96.6	101.3	97.5	22.96±6.64% (500 µM)	4.40±7.15% (500 µM)	2.17								
O=C(/C=C/c1ccc(Cl)cc1Cl)NCCCCCO [H-297/20, (2E)-3-(2,4-dichlorophenyl)-N-(5-hydroxypentyl)prop-2-enamide]	102.3	73.6	88.5	20.53±2.84% (500 µM)	19.09±2.53% (500 µM)	3.08								
Cc1ccc(/C=C/C(=O)NCCCCO)cc1 [H-411/21, (2E)-N-(4-hydroxybutyl)-3-(4-methylphenyl)prop-2-enamide]	50.6	34.9	41.2	16.89±7.94% (500 µM)	20.43±2.09% (500 µM)	2.27								
